How the values were obtained:
[1] = test system: LoVo; test: cells; format: functional, cell-based, Homo sapiens;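 also: growth inhibition of human LoVo cells, read out with a cell viability assay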
Description: SANGER: Inhibition of human LoVo cell growth in a cell viability assay.

[2] = test system: HT55; test: cells; format: functional, cell-based, Homo sapiens;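 also: cell viability readout measuring growth inhibition of human HT55 cells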
Description: SANGER: Inhibition of human HT55 cell growth in a cell viability assay.

[3] = test system: IM-9; test: SANGER: Inhibition of human IM-9 cell growth in a cell viability assay.; format: functional, cell-based
[4] = test system: MONO-MAC-6; test: cells; format: functional, cell-based, Homo sapiens;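 also: cell viability assay measuring growth inhibition of human MONO-MAC-6 cells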
Description: SANGER: Inhibition of human MONO-MAC-6 cell growth in a cell viability assay.

[5] = test system: BOKU; test: cells; format: functional, cell-based, Homo sapiens;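 also: growth inhibition of the human BOKU cell line, read out by a cell viability assay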
Description: SANGER: Inhibition of human BOKU cell growth in a cell viability assay.

[6] = test system: CHP-212; test: cells; format: functional, cell-based, Homo sapiens
Description: SANGER: Inhibition of human CHP-212 cell growth in a cell viability assay.

[7] = test system: BHY; test: cells; format: functional, cell-based, Homo sapiens;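 also: cell growth inhibition read out by a viability assay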
Description: SANGER: Inhibition of human BHY cell growth in a cell viability assay.

[8] = test system: G-361; test: cells; format: functional, cell-based, Homo sapiens
[9] = test system: NCI-H460; test: cells; format: functional, cell-based, Homo sapiens;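 also: cell viability assay scoring growth inhibition of human NCI-H460 cells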
Description: SANGER: Inhibition of human NCI-H460 cell growth in a cell viability assay.

[10] = test system: CAL-72; test: cells; format: functional, cell-based, Homo sapiens;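 also: cell viability assay measuring inhibition of proliferation in the CAL-72 cell line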
Description: SANGER: Inhibition of human CAL-72 cell growth in a cell viability assay.

[11] = test system: NCI-H522; test: cells; format: functional, cell-based, Homo sapiens;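 also: cell viability assay measuring growth inhibition of human NCI-H522 cells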
Description: SANGER: Inhibition of human NCI-H522 cell growth in a cell viability assay.

[12] = test system: KYSE-520 cell line; test: cells; format: functional, cell-based, Homo sapiens;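 also: growth inhibition of human KYSE-520 cells, read out with a viability assay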
Description: SANGER: Inhibition of human KYSE-520 cell growth in a cell viability assay.

[13] = test system: SK-MEL-24; test: cells; format: functional, cell-based, Homo sapiens;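 also: growth inhibition read out by a cell viability assay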
Description: SANGER: Inhibition of human SK-MEL-24 cell growth in a cell viability assay.

[14] = test system: LP-1; test: cells; format: functional, cell-based, Homo sapiens;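 also: growth inhibition of human LP-1 cells, with the read-out taken from a cell viability assay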
Description: SANGER: Inhibition of human LP-1 cell growth in a cell viability assay.

[15] = test system: COR-L279; test: SANGER: Inhibition of human COR-L279 cell growth in a cell viability assay.; format: functional, cell-based
[16] = test system: HuP-T4; test: cells; format: functional, cell-based, Homo sapiens;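 also: cell viability assay measuring how much HuP-T4 cell growth is inhibited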
Description: SANGER: Inhibition of human HuP-T4 cell growth in a cell viability assay.

[17] = test system: LC4-1; test: cells; format: functional, cell-based, Homo sapiens;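 also: growth inhibition of LC4-1 cells, read out with a cell viability assay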
Description: SANGER: Inhibition of human LC4-1 cell growth in a cell viability assay.

[18] = test system: CPC-N; test: cells; format: functional, cell-based, Homo sapiens;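 also: growth inhibition of CPC-N cells, with a cell viability assay as the readout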
Description: SANGER: Inhibition of human CPC-N cell growth in a cell viability assay.

[19] = test system: MCF7; test: cells; format: functional, cell-based, Homo sapiens;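 also: growth inhibition of human MCF7 cells, read out with a cell viability assay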
Description: SANGER: Inhibition of human MCF7 cell growth in a cell viability assay.

[20] = test system: LCLC-97TM1; test: cells; format: functional, cell-based, Homo sapiens;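 also: cell viability assay measuring growth inhibition of human LCLC-97TM1 cells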
Description: SANGER: Inhibition of human LCLC-97TM1 cell growth in a cell viability assay.

[21] = test system: T84; test: cells; format: functional, cell-based, Homo sapiens;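 also: growth inhibition measured with a cell viability readout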
Description: SANGER: Inhibition of human T84 cell growth in a cell viability assay.

[22] = test system: MRK-nu-1; test: cells; format: functional, cell-based, Homo sapiens;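 also: cell viability assay measuring growth suppression of human MRK-nu-1 cells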
Description: SANGER: Inhibition of human MRK-nu-1 cell growth in a cell viability assay.

[23] = test system: NCI-H1703; test: cells; format: functional, cell-based, Homo sapiens;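 also: growth inhibition of NCI-H1703 cells, read out via a cell viability assay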
Description: SANGER: Inhibition of human NCI-H1703 cell growth in a cell viability assay.

[24] = test system: COLO-792; test: cells; format: functional, cell-based, Homo sapiens
Description: SANGER: Inhibition of human COLO-792 cell growth in a cell viability assay.

[25] = test system: HT-3; test: cells; format: functional, cell-based, Homo sapiens;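 also: growth inhibition measured with a cell viability readout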
Description: SANGER: Inhibition of human HT-3 cell growth in a cell viability assay.

[26] = test system: BPH-1; test: cells; format: functional, cell-based, Homo sapiens;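 also: cell viability assay measuring growth inhibition of human BPH-1 cells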
Description: SANGER: Inhibition of human BPH-1 cell growth in a cell viability assay.

[27] = test system: EB2; test: cells; format: functional, cell-based, Homo sapiens;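 also: growth inhibition of EB2 cells, read out with a cell viability assay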
Description: SANGER: Inhibition of human EB2 cell growth in a cell viability assay.

[28] = test system: NCI-H1963; test: cells; format: functional, cell-based, Homo sapiens;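 also: cell growth inhibition of the human line, determined with a cell viability assay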
Description: SANGER: Inhibition of human NCI-H1963 cell growth in a cell viability assay.

[29] = test system: NCI-H2196; test: cells; format: functional, cell-based, Homo sapiens;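 also: cell viability assay used as the readout of growth inhibition in NCI-H2196 cells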
Description: SANGER: Inhibition of human NCI-H2196 cell growth in a cell viability assay.

[30] = test system: HT-29; test: cells; format: functional, cell-based, Homo sapiens;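 also: growth inhibition of human HT-29 cells, read out by a cell viability assay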
Description: SANGER: Inhibition of human HT-29 cell growth in a cell viability assay.

[31] = test system: TALL-1; test: cells; format: functional, cell-based, Homo sapiens;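 also: growth inhibition of cultured human TALL-1 cells, read out by a cell viability assay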
Description: SANGER: Inhibition of human TALL-1 cell growth in a cell viability assay.

[32] = test system: HCC1599; test: cells; format: functional, cell-based, Homo sapiens;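 also: growth inhibition of HCC1599 cells, read out in a cell viability assay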
Description: SANGER: Inhibition of human HCC1599 cell growth in a cell viability assay.

[33] = test system: SW837; test: cells; format: functional, cell-based, Homo sapiens;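 also: growth inhibition of SW837 cells, determined with a cell viability assay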
Description: SANGER: Inhibition of human SW837 cell growth in a cell viability assay.

[34] = test system: BT-20; test: cells; format: functional, cell-based, Homo sapiens;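 also: cell viability assay measuring suppression of growth in human BT-20 cells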
Description: SANGER: Inhibition of human BT-20 cell growth in a cell viability assay.

[35] = test system: U-251; test: cells; format: functional, cell-based, Homo sapiens;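 also: growth inhibition of human U-251 cells, read out through a cell viability assay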
Description: SANGER: Inhibition of human U251 cell growth in a cell viability assay.

[36] = test system: NUGC-3; test: cells; format: functional, cell-based, Homo sapiens;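 also: growth inhibition of human NUGC-3 cells, read out with a cell viability assay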
Description: SANGER: Inhibition of human NUGC-3 cell growth in a cell viability assay.

[37] = test system: DG-75; test: cells; format: functional, cell-based, Homo sapiens;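 also: growth inhibition of DG-75 cells, read out with a cell viability assay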
Description: SANGER: Inhibition of human DG-75 cell growth in a cell viability assay.

[38] = test system: ChaGo-K-1; test: cells; format: functional, cell-based, Homo sapiens;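 also: growth inhibition of ChaGo-K-1 cells, read out with a cell viability assay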
Description: SANGER: Inhibition of human ChaGo-K-1 cell growth in a cell viability assay.

[39] = test system: KP-4; test: cells; format: functional, cell-based, Homo sapiens;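 also: human KP-4 cells, with growth inhibition read out through a cell viability assay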
Description: SANGER: Inhibition of human KP-4 cell growth in a cell viability assay.

[40] = test system: Panc1005; test: cells; format: functional, cell-based, Homo sapiens;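 also: growth inhibition of human PANC-10-05 cells, measured by a cell viability assay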
Description: SANGER: Inhibition of human PANC-10-05 cell growth in a cell viability assay.

[41] = test system: IGROV-1; test: cells; format: functional, cell-based, Homo sapiens;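 also: reduction of IGROV-1 cell growth, read out with a viability assay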
Description: SANGER: Inhibition of human IGROV-1 cell growth in a cell viability assay.

[42] = test system: SK-N-AS; test: cells; format: functional, cell-based, Homo sapiens;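 also: growth inhibition of human SK-N-AS cells, measured with a cell viability assay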
Description: SANGER: Inhibition of human SK-N-AS cell growth in a cell viability assay.

[43] = test system: PANC-03-27; test: cells; format: functional, cell-based, Homo sapiens
Description: SANGER: Inhibition of human PANC-03-27 cell growth in a cell viability assay.

[44] = test system: KMS-12-PE; test: cells; format: functional, cell-based, Homo sapiens;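 also: growth inhibition of human KMS-12-PE cells, measured with a cell viability assay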
Description: SANGER: Inhibition of human KMS-12-PE cell growth in a cell viability assay.

[45] = test system: U2OS; test: cells; format: functional, cell-based, Homo sapiens, U-2-OS;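 also: growth inhibition of human U-2-OS cells, determined with a cell viability assay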
Description: SANGER: Inhibition of human U-2-OS cell growth in a cell viability assay.

[46] = test system: IST-SL2; test: cells; format: functional, cell-based, Homo sapiens;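 also: growth inhibition of human IST-SL2 cells, read out by a cell viability assay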
Description: SANGER: Inhibition of human IST-SL2 cell growth in a cell viability assay.

Compound: BLEOMYCIN
- IC50 ([1]; lovo): 0.0712 µM
- IC50 ([2]; ht55): 1040 µM
- IC50 ([3]; im-9): 4.13 µM
- IC50 ([4]; mono-mac-6): 4.59 µM
- IC50 ([5]; boku): 0.137 µM
- IC50 ([6]; chp-212): 0.148 µM
- IC50 ([7]; bhy): 1.83 µM
- IC50 ([8]; g-361): 0.0883 µM
- IC50 ([9]; nci-h460): 4.76 µM
- IC50 ([10]; cal-72): 580 µM
- IC50 ([11]; nci-h522): 0.426 µM
- IC50 ([12]; kyse-520): 6.79 µM
- IC50 ([13]; sk-mel-24): 23.3 µM
- IC50 ([14]; lp-1): 307 µM
- IC50 ([15]; cor-l279): 25.4 µM
- IC50 ([16]; hup-t4): 1.31 µM
- IC50 ([17]; lc4-1): 11.2 µM
- IC50 ([18]; cpc-n): 52.5 µM
- IC50 ([19]; mcf7): 1.17 µM
- IC50 ([20]; lclc-97tm1): 1.5 µM
- IC50 ([21]; t84): 13.5 µM
- IC50 ([22]; mrk-nu-1): 1.45 µM
- IC50 ([23]; nci-h1703): 0.0161 µM
- IC50 ([24]; colo-792): 26.4 µM
- IC50 ([25]; ht-3): 5.78 µM
- IC50 ([26]; bph-1): 0.0591 µM
- IC50 ([27]; eb2): 0.691 µM
- IC50 ([28]; nci-h1963): 193 µM
- IC50 ([29]; nci-h2196): 22.8 µM
- IC50 ([30]; ht-29): 0.535 µM
- IC50 ([31]; tall-1): 244 µM
- IC50 ([32]; hcc1599): 3.37 µM
- IC50 ([33]; sw837): 1.61 µM
- IC50 ([34]; bt-20): 2.77 µM
- IC50 ([35]; u-251): 4.36 µM
- IC50 ([36]; nugc-3): 1.13 µM
- IC50 ([37]; dg-75): 16.9 µM
- IC50 ([38]; chago-k-1): 16.4 µM
- IC50 ([39]; kp-4): 2.17 µM
- IC50 ([40]; panc1005): 0.256 µM
- IC50 ([41]; igrov-1): 0.145 µM
- IC50 ([42]; sk-n-as): 1950 µM
- IC50 ([43]; panc-03-27): 0.316 µM
- IC50 ([44]; kms-12-pe): 2530 µM
- IC50 ([45]; u-2-os): 265 µM
- IC50 ([46]; ist-sl2): 0.000173 µM

Compound: Cc1cc([N+](=O)[O-])ccc1NS(=O)(=O)c1cc(Cl)ccc1Cl
- IC50 ([1]; Homo sapiens, LoVo): 2 µM
- IC50 ([2]; Homo sapiens, HT55): > 32 µM
- IC50 ([3]; Homo sapiens, IM-9): 14.1 µM
- IC50 ([4]; Homo sapiens, MONO-MAC-6): 6.18 µM
- IC50 ([5]; Homo sapiens, BOKU): 4.36 µM
- IC50 ([6]; Homo sapiens, CHP-212): 2.58 µM
- IC50 ([7]; Homo sapiens, BHY): 4.5 µM
- IC50 ([8]; Homo sapiens, G-361): 1.77 µM
- IC50 ([9]; Homo sapiens, NCI-H460): 3.66 µM
- IC50 ([10]; Homo sapiens, CAL-72): > 32 µM
- IC50 ([11]; Homo sapiens, NCI-H522): 1.4 µM
- IC50 ([12]; Homo sapiens, KYSE-520): 27.6 µM
- IC50 ([13]; Homo sapiens, SK-MEL-24): 6.27 µM
- IC50 ([14]; Homo sapiens, LP-1): 10.6 µM
- IC50 ([15]; Homo sapiens, COR-L279): > 32 µM
- IC50 ([16]; Homo sapiens, HuP-T4): 1.68 µM
- IC50 ([17]; Homo sapiens, LC4-1): 13.7 µM
- IC50 ([18]; Homo sapiens, CPC-N): > 32 µM
- IC50 ([19]; Homo sapiens, MCF7): 2.64 µM
- IC50 ([20]; Homo sapiens, LCLC-97TM1): 3.18 µM
- IC50 ([21]; Homo sapiens, T84): 4.69 µM
- IC50 ([22]; Homo sapiens, MRK-nu-1): 2.73 µM
- IC50 ([23]; Homo sapiens, NCI-H1703): 3.29 µM
- IC50 ([24]; Homo sapiens, COLO-792): 2.01 µM
- IC50 ([25]; Homo sapiens, HT-3): > 32 µM
- IC50 ([26]; Homo sapiens, BPH-1): 12.2 µM
- IC50 ([27]; Homo sapiens, EB2): > 32 µM
- IC50 ([28]; Homo sapiens, NCI-H1963): 8.68 µM
- IC50 ([29]; Homo sapiens, NCI-H2196): > 32 µM
- IC50 ([30]; Homo sapiens, HT-29): 5.53 µM
- IC50 ([31]; Homo sapiens, TALL-1): 6.23 µM
- IC50 ([32]; Homo sapiens, HCC1599): 16.7 µM
- IC50 ([33]; Homo sapiens, SW837): 4 µM
- IC50 ([34]; Homo sapiens, BT-20): 8.51 µM
- IC50 ([35]; Homo sapiens, U-251): 2.17 µM
- IC50 ([36]; Homo sapiens, NUGC-3): 3.65 µM
- IC50 ([37]; Homo sapiens, DG-75): > 32 µM
- IC50 ([38]; Homo sapiens, ChaGo-K-1): 4.12 µM
- IC50 ([39]; Homo sapiens, KP-4): 1.66 µM
- IC50 ([40]; Homo sapiens, Panc1005): 5.37 µM
- IC50 ([41]; Homo sapiens, IGROV-1): 2.66 µM
- IC50 ([42]; Homo sapiens, SK-N-AS): 6.53 µM
- IC50 ([43]; Homo sapiens, PANC-03-27): 6.38 µM
- IC50 ([44]; Homo sapiens, KMS-12-PE): > 32 µM
- IC50 ([45]; Homo sapiens, U2OS): > 32 µM
- IC50 ([46]; Homo sapiens, IST-SL2): 8.24 µM

Compound: COc1cccc2c1C(=O)c1c(O)c3c(c(O)c1C2=O)C[C@@](O)(C(=O)CO)C[C@@H]3O[C@H]1C[C@H](N)[C@H](O)[C@H](C)O1 [DOXORUBICIN]
- IC50 ([1]; Homo sapiens, LoVo): 0.0818 µM
- IC50 ([2]; Homo sapiens, HT55): > 1.02 µM
- IC50 ([3]; Homo sapiens, IM-9): 0.0514 µM
- IC50 ([4]; Homo sapiens, MONO-MAC-6): 0.154 µM
- IC50 ([5]; Homo sapiens, BOKU): 0.111 µM
- IC50 ([6]; Homo sapiens, CHP-212): 0.035 µM
- IC50 ([7]; Homo sapiens, BHY): 0.0289 µM
- IC50 ([8]; Homo sapiens, G-361): 0.0279 µM
- IC50 ([9]; Homo sapiens, NCI-H460): 0.0127 µM
- IC50 ([10]; Homo sapiens, CAL-72): 0.841 µM
- IC50 ([11]; Homo sapiens, NCI-H522): 0.0519 µM
- IC50 ([12]; Homo sapiens, KYSE-520): 0.261 µM
- IC50 ([13]; Homo sapiens, SK-MEL-24): 0.914 µM
- IC50 ([14]; Homo sapiens, LP-1): > 1.02 µM
- IC50 ([15]; Homo sapiens, COR-L279): 0.0569 µM
- IC50 ([16]; Homo sapiens, HuP-T4): 0.0522 µM
- IC50 ([17]; Homo sapiens, LC4-1): 0.241 µM
- IC50 ([18]; Homo sapiens, CPC-N): 0.0684 µM
- IC50 ([19]; Homo sapiens, MCF7): 0.0117 µM
- IC50 ([20]; Homo sapiens, LCLC-97TM1): 0.0118 µM
- IC50 ([21]; Homo sapiens, T84): 0.0571 µM
- IC50 ([22]; Homo sapiens, MRK-nu-1): 0.0437 µM
- IC50 ([23]; Homo sapiens, NCI-H1703): 0.126 µM
- IC50 ([24]; Homo sapiens, COLO-792): > 1.02 µM
- IC50 ([25]; Homo sapiens, HT-3): 0.133 µM
- IC50 ([26]; Homo sapiens, BPH-1): 0.0221 µM
- IC50 ([27]; Homo sapiens, EB2): 0.0337 µM
- IC50 ([28]; Homo sapiens, NCI-H1963): 0.43 µM
- IC50 ([29]; Homo sapiens, NCI-H2196): 0.229 µM
- IC50 ([30]; Homo sapiens, HT-29): 0.0366 µM
- IC50 ([31]; Homo sapiens, TALL-1): > 1.02 µM
- IC50 ([32]; Homo sapiens, HCC1599): 0.0725 µM
- IC50 ([33]; Homo sapiens, SW837): 0.118 µM
- IC50 ([34]; Homo sapiens, BT-20): > 1.02 µM
- IC50 ([35]; Homo sapiens, U-251): 0.0649 µM
- IC50 ([36]; Homo sapiens, NUGC-3): 0.0452 µM
- IC50 ([37]; Homo sapiens, DG-75): 0.666 µM
- IC50 ([38]; Homo sapiens, ChaGo-K-1): 0.108 µM
- IC50 ([39]; Homo sapiens, KP-4): 0.0408 µM
- IC50 ([40]; Homo sapiens, Panc1005): 0.0884 µM
- IC50 ([41]; Homo sapiens, IGROV-1): 0.0072 µM
- IC50 ([42]; Homo sapiens, SK-N-AS): > 1.02 µM
- IC50 ([43]; Homo sapiens, PANC-03-27): 0.0282 µM
- IC50 ([44]; Homo sapiens, KMS-12-PE): 0.418 µM
- IC50 ([45]; Homo sapiens, U2OS): > 1.02 µM
- IC50 ([46]; Homo sapiens, IST-SL2): 0.0738 µM

— ChEMBL document CHEMBL1201861, “Genomics of Drug Sensitity in Cancer screening data, Wellcome Trust Sanger Institute”
